The values that follow are results of earlier work, collected in US10117917B2, “Peptides and combination of peptides for use in immunotherapy against various cancers” (immatics biotechnologies GmbH, priority 2015, dated 2018).

In this data set the test system is advanced non-resectable HCC. Particulars: advanced non-resectable HCC patients; cited from earlier work.

As to `CNC(=O)c1cc(Oc2ccc(NC(=O)Nc3ccc(Cl)c(C(F)(F)F)c3)cc2)ccn1` [Sorafenib], the increase of survival entry is given as “about 3 months”.
